# Laboratory results published in patent US20090221559A1 (priority 2005, published 2009).
# Like-named read-outs stand apart in the source and are kept apart here.
# How the values were obtained:
# [1] = target: T1, HCV NS5B polymerase (His-tagged, C-terminal 21 amino acid deleted NS5B, HC-J4) (Hepatitis C virus genotype 1b, UniProt O92972); assay: NS5b polymerase assay (biochemical RdRp assay, 3H-GTP incorporation, SPA beads); design: species or system HCV genotype 1b
# T1 construct: The cDNA encoding NS5B amino acid 1-570 (HC-J4, genotype 1b); His tag (His6, from pET-21b) (C); made in house; host or cells: E. coli BL21 (DE3)
# Summary of the method: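 3H-GTP incorporation into newly made RNA was captured on SPA beads added in EDTA after 2 h at 25 °C. Compounds in DMSO met preformed enzyme–template complex (200 nM truncated His-NS5B, HC-J4 1b; biotin-oligo(rG13)/poly(rC)) for 15 min at RT, then 600 nM GTP, 5 mM MgCl2, Tris pH 7.5 started polymerization.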
# [2] = tested on: HCV replicon RNA replication in Huh-7 luc/neo (Huh-Luc) cells; assay: HCV replicon assay (stable replicon cell reporter assay, luciferase read-out); type: cell-based, HCV type 1b
# Summary of the method: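 Three-day compound exposure used Huh-Luc cells, which harbour an autonomously replicating genotype 1b NS3-NS5B replicon expressing luciferase and neo^R. Luciferase signal served as the replication read-out, and dose-response curves came from several concentrations per compound.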
# [3] = NS5B Polymerase Assay IC50 (μM)
# [4] = Hepatitis C virus, Huh-7, 72 h, read-out: Replicon Assay EC50 (μM), Huh-Luc cells, incubation of three days, luciferase activity
# [5] = 200 nM enzyme, 3H-GTP incorporation, 2 h at 25° C., read-out: NS5B Polymerase Assay IC50
# [6] = Huh-Luc cells, three days incubation, luciferase activity, read-out: Replicon Assay EC50
# [7] = NS5B Polymerase Assay IC50, 200 nM enzyme, 3H-GTP incorporation, 2 h at 25° C.
# [8] = Hepatitis C virus, Huh-7, 72 h, read-out: Replicon Assay EC50, Huh-Luc cells, three days incubation, luciferase activity
# T1 sequence (O92972 2417-3000, looked up, stated change not applied): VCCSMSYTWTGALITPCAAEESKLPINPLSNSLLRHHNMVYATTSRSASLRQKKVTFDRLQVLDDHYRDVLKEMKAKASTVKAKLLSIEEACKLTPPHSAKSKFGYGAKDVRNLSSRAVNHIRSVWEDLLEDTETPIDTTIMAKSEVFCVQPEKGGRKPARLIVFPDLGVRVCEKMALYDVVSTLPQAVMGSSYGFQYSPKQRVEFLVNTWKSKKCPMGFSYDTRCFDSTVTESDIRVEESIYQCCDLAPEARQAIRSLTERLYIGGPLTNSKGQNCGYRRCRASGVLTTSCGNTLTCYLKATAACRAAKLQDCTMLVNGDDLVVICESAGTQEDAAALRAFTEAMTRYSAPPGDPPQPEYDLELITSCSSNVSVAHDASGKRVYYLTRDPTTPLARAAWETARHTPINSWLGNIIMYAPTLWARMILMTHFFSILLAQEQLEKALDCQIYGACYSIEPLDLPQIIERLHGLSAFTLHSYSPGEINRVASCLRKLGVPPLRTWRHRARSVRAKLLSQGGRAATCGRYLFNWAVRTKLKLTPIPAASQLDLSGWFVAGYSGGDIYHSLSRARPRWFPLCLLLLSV
Compound,"IC50 [1, 3] [µM]","EC50 [2, 4] [µM]","IC50 [1, 7] [µM]","EC50 [2, 8] [µM]",other results
Cc1ccc(C2Nc3ccccc3NC3=C2C(=O)CC(c2ccccc2)C3)cc1[N+](=O)[O-] (stereo not drawn) [compound 358],> 42.7,20.4,,,
"CC1(C)CC(=O)C2=C(C1)Nc1ccccc1NC2c1ccc(OCc2ccccc2)cc1OCc1ccccc1 (stereo not drawn) [compound 445, 11-[2,4-dibenzyloxyphenyl]-3,3-dimethyl-2,3,4,5,10,11-hexahydro-1H-dibenzo[b,e][1,4]diazepin-1-one]",> 133,1.98,,,
CCCCCC(=O)N1c2ccccc2NC2=C(C(=O)CC(c3ccc(OC)c(OC)c3)C2)C1c1cccc(Cl)c1 (mixture of isomers) [compound 205],,,,,"IC50 [1, 5]: > 33.3 µM; EC50 [2, 6]: 9.96 µM"
COc1ccc(C2CC(=O)C3=C(C2)Nc2ccccc2N(C(C)=O)C3c2ccco2)cc1 (stereo not drawn) [compound 298],,,,,"IC50 [1, 5]: > 42.7 µM; EC50 [2, 6]: > 32 µM"
CC1(C)CC(=O)C2=C(C1)Nc1ccccc1N(C(=O)Cc1ccccc1)C2c1c(Cl)cccc1Cl (stereo not drawn) [compound 16],,,> 42.7,10.6,
COc1ccc(C2C3=C(CC(C)(C)CC3=O)Nc3ccccc3N2C(=O)CSc2nc3ccccc3s2)cc1 (stereo not drawn) [compound 21],,,> 42.7,14.2,
CCOc1cc(C2C3=C(CC(C)(C)CC3=O)Nc3ccccc3N2C(C)=O)ccc1O (stereo not drawn) [compound 121],,,> 42.7,> 32,
COc1ccc(C2CC(=O)C3=C(C2)Nc2ccccc2NC3c2cc([N+](=O)[O-])ccc2Cl)cc1 (stereo not drawn) [compound 375],> 42.7,19.9,,,
CC1(C)CC(=O)C2=C(C1)Nc1ccccc1NC2c1cccnc1 (stereo not drawn) [compound 499],> 42.7,> 32,,,
CCN(CC)c1ccc(C2Nc3ccccc3NC3=C2C(=O)CC(c2ccc(OC)cc2)C3)cc1 (stereo not drawn) [compound 363],> 42.7,25.8,,,
Cc1cccc(C2Nc3ccccc3NC3=C2C(=O)CC(c2ccccc2)C3)c1 (stereo not drawn) [compound 354],> 42.7,20.5,,,
CCCOc1ccc(C2Nc3ccccc3NC3=C2C(=O)CC(c2ccc(OC)cc2)C3)cc1OC (stereo not drawn) [compound 394],> 42.7,14.1,,,
CC(C)CC(=O)N1c2ccccc2NC2=C(C(=O)CC(C)(C)C2)C1c1ccc2c(c1)OCO2 (stereo not drawn) [compound 242],,,> 42.7,1.77,
Cc1ccc(C2Nc3ccccc3NC3=C2C(=O)CC(c2ccc(Cl)cc2)C3)cc1 (stereo not drawn) [compound 409],> 33.3,14.9,,,
CCCOc1cccc(C2C3=C(CC(C)(C)CC3=O)Nc3ccccc3N2C(C)=O)c1 (stereo not drawn) [compound 123],,,> 42.7,> 32,
COc1ccc([C@@H]2CC(=O)C3=C(C2)Nc2ccccc2N[C@H]3c2cccc3ccccc23)cc1OC [compound 496],> 42.7,22.9,,,
O=C1CC(c2ccco2)CC2=C1C(c1cccc([N+](=O)[O-])c1)N(C(=O)c1ccccc1)c1ccccc1N2 (stereo not drawn) [compound 286],,,,,"IC50 [1, 5]: > 42.7 µM; EC50 [2, 6]: 19.2 µM"
CC1(C)CC(=O)C2=C(C1)Nc1ccccc1NC2c1coc2c(Cl)cc(Cl)cc2c1=O (stereo not drawn) [compound 502],> 42.7,13.2,,,
CC(=O)N1c2ccccc2NC2=C(C(=O)CC(C)(C)C2)C1c1ccc2c(c1)OCO2 (stereo not drawn) [compound 284],,,> 42.7,30.9,
CC1(C)CC(=O)C2=C(C1)Nc1ccccc1N(C(=O)Cc1ccccc1)C2c1cccs1 (stereo not drawn) [compound 240],,,> 42.7,7.73,
"CC(=O)N1c2ccccc2NC2=C(C(=O)CC(C)(C)C2)C1c1ccc(F)cc1F (stereo not drawn) [compound 146, 10-acetyl-11-(2,4-difluorophenyl)-3,3-dimethyl-2,3,4,5,10,11-hexahydro-1H-dibenzo[b,e][1,4]diazepin-1-one]",,,2.02,23.9,
"CC1(C)CC(=O)C2=C(C1)Nc1ccccc1NC2c1cccc(OCc2ccccc2)c1 (stereo not drawn) [compound 437, 11-(3-benzyloxyphenyl)-3,3-dimethyl-2,3,4,5,10,11-hexahydro-1H-dibenzo[b,e][1,4]diazepin-1-one]",32.9,6.35,,,
COc1ccc(C2C3=C(CC(C)(C)CC3=O)Nc3ccccc3N2C(=O)C(F)(F)F)cc1 (stereo not drawn) [compound 110],,,> 42.7,8.11,
COc1ccc(OC)c(C2C3=C(CC(C)(C)CC3=O)Nc3ccccc3N2C(=O)C(F)(F)F)c1 (stereo not drawn) [compound 3],,,> 42.7,> 32,

Compound,"IC50 [1, 3] [µM]","EC50 [2, 4] [µM]","IC50 [1, 7] [µM]","EC50 [2, 8] [µM]",other results
COc1ccc(C2C3=C(CC(c4cccc([N+](=O)[O-])c4)CC3=O)Nc3ccccc3N2C(C)=O)cc1OC (mixture of isomers) [compound 180],,,,,"IC50 [1, 5]: > 42.7 µM; EC50 [2, 6]: 11.8 µM"
"COc1cc2c(cc1OC)N(C(C)=O)C(c1ccc(Cl)cc1Cl)C1=C(CC(C)(C)CC1=O)N2 (stereo not drawn) [compound 309, 10-acetyl-7,8-dimethoxy-11-(2,4-dichlorophenyl)-3,3-dimethyl-2,3,4,5,10,11-hexahydro-1H-dibenzo[b,e][1,4]diazepin-1-one]",,,> 133,39.6,
"CC(=O)N1c2ccccc2NC2=C(C(=O)CC(C)(C)C2)C1c1cccc(OCc2ccccc2)c1 (stereo not drawn) [compound 136, 10-acetyl-11-(3-benzyloxyphenyl)-3,3-dimethyl-2,3,4,5,10,11-hexahydro-1H-dibenzo[b,e][1,4]diazepin-1-one]",,,> 133,9.51,
O=C1C[C@@H](c2ccc3c(c2)OCO3)CC2=C1[C@H](c1cc3c(cc1Br)OCO3)Nc1ccccc1N2 [compound 493],> 42.7,1.3,,,
COc1ccc(C2Nc3ccccc3NC3=C2C(=O)CC(C)(C)C3)cc1OCc1ccccc1 (stereo not drawn) [compound 424],11.6,12.5,,,
CSc1ccc(C2Nc3ccccc3NC3=C2C(=O)CC(c2ccc4c(c2)OCO4)C3)cc1 (stereo not drawn) [compound 368],> 42.7,14.9,,,
CCCCCC(=O)N1c2ccccc2NC2=C(C(=O)CC(c3ccc(OC)c(OC)c3)C2)C1c1ccc(Cl)cc1 (mixture of isomers) [compound 185],,,,,"IC50 [1, 5]: > 33.3 µM; EC50 [2, 6]: 4.79 µM"
"CC(=O)N1c2ccccc2NC2=C(C(=O)CC(C)(C)C2)C1c1ccc(OCc2ccccc2Cl)cc1 (stereo not drawn) [compound 148, 10-acetyl-11-[4-(2-chlorobenzyloxy)phenyl]-3,3-dimethyl-2,3,4,5,10,11-hexahydro-1H-dibenzo[b,e][1,4]diazepin-1-one]",,,83.7,3.23,
COc1ccccc1C1C2=C(CC(C)(C)CC2=O)Nc2ccccc2N1C(C)=O (stereo not drawn) [compound 128],,,> 42.7,> 32,
COc1ccc(C2CC(=O)C3=C(C2)Nc2ccccc2N(C(C)=O)C3c2cccc(Cl)c2)cc1OC (mixture of isomers) [compound 198],,,,,"IC50 [1, 5]: > 33.3 µM; EC50 [2, 6]: 9.22 µM"
CC(=O)N1c2ccccc2NC2=C(C(=O)CC(C)(C)C2)C1c1ccc(Cl)cc1 (stereo not drawn) [compound 111],,,> 42.7,> 32,
"CC1(C)CC(=O)C2=C(C1)Nc1ccccc1NC2c1ccc(Oc2ccccc2)cc1 (stereo not drawn) [compound 435, 11-(4-phenoxyphenyl)-3,3-dimethyl-2,3,4,5,10,11-hexahydro-1H-dibenzo[b,e][1,4]diazepin-1-one]",> 133,6.7,,,
COc1c(Cl)cc(Cl)cc1C1C2=C(CC(C)(C)CC2=O)Nc2ccccc2N1C(C)=O (stereo not drawn) [compound 73],,,> 42.7,19.9,
O=C1CC(c2ccccc2)CC2=C1C(c1ccccc1OCc1ccccc1)Nc1ccccc1N2 (stereo not drawn) [compound 365],27.3,5.24,,,
Cc1cc2c(cc1C)NC(c1ccc(Cl)c([N+](=O)[O-])c1)C1=C(CC(C)(C)CC1=O)N2 (stereo not drawn) [compound 452],> 42.7,19.7,,,
Cc1ccc(C2C3=C(CC(c4cccc([N+](=O)[O-])c4)CC3=O)Nc3ccccc3N2C(=O)c2ccccc2)cc1 (mixture of isomers) [compound 212],,,,,"IC50 [1, 5]: > 42.7 µM; EC50 [2, 6]: 23.9 µM"
CCCCC(=O)N1c2ccccc2NC2=C(C(=O)CC(C)(C)C2)C1c1cccs1 (stereo not drawn) [compound 263],,,> 42.7,10.4,
"CC1(C)CC(=O)C2=C(C1)Nc1ccccc1NC2c1ccc(O)cc1 (stereo not drawn) [compound 440, 3,3-dimethyl-11-(4-hydroxyphenyl)-2,3,4,5,10,11-hexahydro-1H-dibenzo[b,e][1,4]diazepin-1-one]",> 133,> 100,,,
CCCCOc1ccc(C2CC(=O)C3=C(C2)Nc2ccccc2N(C(=O)C(F)(F)F)C3c2ccccc2)cc1 (stereo not drawn) [compound 171],,,,,"IC50 [1, 5]: > 42.7 µM; EC50 [2, 6]: 4.54 µM"
CC1(C)CC(=O)C2=C(C1)Nc1ccccc1N(C(=O)Cc1ccccc1)C2c1cccc(O)c1 (stereo not drawn) [compound 39],,,> 42.7,7.42,
CC(=O)N1c2ccccc2NC2=C(C(=O)CC(C)(C)C2)C1c1ccccn1 (stereo not drawn) [compound 281],,,> 42.7,> 32,
COc1ccc(C2CC(=O)C3=C(C2)Nc2ccccc2NC3c2ccc(C)cc2)cc1 (stereo not drawn) [compound 384],4.58,15.9,,,
O=C1C[C@@H](c2ccccc2)CC2=C1[C@H](c1coc3ccccc3c1=O)Nc1ccccc1N2 [compound 488],> 42.7,17.8,,,
O=C1CC(c2ccc(Cl)cc2)CC2=C1C(c1cccc([N+](=O)[O-])c1)Nc1ccccc1N2 (stereo not drawn) [compound 337],> 42.7,17.5,,,
